Measured values: patent publication US6472213B1, “Shuttle vectors for the introduction of DNA into mycobacteria and utilization of such bacteria as vaccines” (Institut National de la Sante et de la Recherche Medicale …, priority 1994, dated 2002)

Legend:
Type in all cases: cell-based, M. smegmatis, M. bovis BCG, M. tuberculosis
[1] = test system: non-transformed control mycobacteria
[2] = test system: mycobacteria carrying the plasmid pMR001
[3] = test system: pVN2-carrying mycobacteria

`[Cl][Hg][Cl]` [HgCl2] was tested, and the “Phenotypes of resistance to mercury” value [1] was “S”, the “Phenotypes of resistance to mercury” value [2] was “R” and the “Phenotypes of resistance to mercury” value [3] was “R”. For the same molecule, the level of resistance [3] was 40 mg/mL.
